Data taken from US9403808B2, “Pyrazine derivatives” (Hoffmann-La Roche Inc., priority 2011, dated 2016).

Tests used:
[1] = biological target: human CB1 receptors (Homo sapiens (Human), UniProt P21554); experiment: functional cAMP assay, CB1; type: cell-based; details: functional cAMP assay, CHO cells expressing human CB1; read-out: human CB1 EC50
Method: (§1) CHO cells expressing human CB1 or CB2 receptors are seeded 17-24 hours prior to the experiment 50.000 cells per well in a black 96 well plate with flat clear bottom (Corning Costar #3904) in DMEM (Invitrogen No. 31331), 1×HT supplement, with 10% fetal calf serum and incubated at 5% CO2 and 37° C. in a humidified incubator. The growth medium was exchanged with Krebs Ringer Bicarbonate buffer with 1 mM IBMX and incubated at 30° C. for 30 min. Compounds were added to a final assay volume of 100 μl and incubated for 30 min at 30° C. Using the cAMP-Nano-TRF detection kit the assay (Roche Diagnostics) was stopped by the addition of 50 μl lysis reagent (Tris, NaCl, 1.5% Triton X100, 2.5% NP40, 10% NaN3) and 50 μl detection solutions (20 μM mAb Alexa700-cAMP 1:1, and 48 μM Ruthenium-2-AHA-cAMP) and shaken for 2 h at room temperature. The time-resolved energy transfer is measured by a TRF reader (Evotec Technologies GmbH), equipped with a ND:YAG laser as excitation source. The plate is measured twice with the excitation at 355 nm and at the emission with a delay of 100 ns and a gate of 100 ns, total exposure time 10s at 730 (bandwidth 30 nm) or 645 nm (bandwidth 75 nm), respectively. The FRET signal is calculated as follows: FRET=T730-Alexa730-P(T645-B645) with P=Ru730-B730/Ru645-B645, where T730 is the test well measured at […], T645 is the test well measured at 645 nm, B730 and B645 are the buffer controls at 730 nm and 645 nm, respectively. cAMP content is determined from the function of a standard curve spanning from 10 μM to 0.13 nM cAMP.
(§2) EC50 values were determined using Activity Base analysis (ID Business Solution, Limited). The EC50 values for a wide range of cannabinoid agonists generated from this assay were in agreement with the values published in the scientific literature.

[2] = biological target: human CB2 receptors (Homo sapiens (Human), UniProt P34972); experiment: functional cAMP assay, CB2; type: cell-based; details: functional cAMP assay, CHO cells expressing human CB2; read-out: human CB2 EC50
Chain of human CB2 receptors (P34972 whole entry): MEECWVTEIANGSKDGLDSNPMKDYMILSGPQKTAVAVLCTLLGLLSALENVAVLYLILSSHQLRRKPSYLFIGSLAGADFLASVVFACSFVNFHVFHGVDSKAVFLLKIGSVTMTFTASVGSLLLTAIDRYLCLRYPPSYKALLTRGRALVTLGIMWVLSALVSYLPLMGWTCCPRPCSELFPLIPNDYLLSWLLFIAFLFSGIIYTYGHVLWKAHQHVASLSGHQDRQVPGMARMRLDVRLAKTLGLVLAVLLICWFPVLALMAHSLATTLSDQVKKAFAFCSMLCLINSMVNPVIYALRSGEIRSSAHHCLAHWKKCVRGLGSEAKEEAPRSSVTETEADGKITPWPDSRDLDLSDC
Method: as §1, §2

Chain of human CB1 receptors (P21554 whole entry): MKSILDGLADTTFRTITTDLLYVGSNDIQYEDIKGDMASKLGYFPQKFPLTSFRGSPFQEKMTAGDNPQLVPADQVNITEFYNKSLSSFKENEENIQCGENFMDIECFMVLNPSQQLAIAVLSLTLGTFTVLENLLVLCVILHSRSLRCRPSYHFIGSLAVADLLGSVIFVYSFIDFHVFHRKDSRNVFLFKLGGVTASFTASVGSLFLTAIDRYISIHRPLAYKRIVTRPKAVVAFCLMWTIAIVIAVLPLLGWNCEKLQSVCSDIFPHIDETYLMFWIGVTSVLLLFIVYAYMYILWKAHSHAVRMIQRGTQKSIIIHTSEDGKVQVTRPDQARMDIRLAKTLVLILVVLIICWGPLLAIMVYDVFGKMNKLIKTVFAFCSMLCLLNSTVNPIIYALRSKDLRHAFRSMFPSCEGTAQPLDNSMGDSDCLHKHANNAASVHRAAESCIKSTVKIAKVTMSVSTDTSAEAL

`CC(C)C[C@H](NC(=O)c1cnc(C2CC2)c(OCC2CC2)n1)C(N)=O` [Example 29, 5-Cyclopropyl-6-cyclopropylmethoxy-pyrazine-2-carboxylic acid ((S)-1-carbamoyl-3-methyl-butyl)-amide] gave an EC50 [1] of 1.57 µM and an EC50 [2] of 0.0041 µM.
`CCC(CC)(NC(=O)c1cnc(C2CC2)c(OCC2CC2)n1)C(=O)OC` [Example 30, 2-[(5-Cyclopropyl-6-cyclopropylmethoxy-pyrazine-2-carbonyl)-amino]-2-ethyl-butyric acid methyl ester] gave an EC50 [1] of 0.255 µM and an EC50 [2] of 0.0014 µM.
`CNC(=O)[C@H](CC1CC1)NC(=O)c1cnc(N2CC(F)(F)C2)c(OCC2CC2)n1` [Example 31, 6-Cyclopropylmethoxy-5-(3,3-difluoro-azetidin-1-yl)-pyrazine-2-carboxylic acid ((S)-2-cyclopropyl-1-methylcarbamoyl-ethyl)-amide] showed an EC50 [1] greater than 10 µM and an EC50 [2] of 0.124 µM.
With `CN(C)C(=O)[C@H](CC1CC1)NC(=O)c1cnc(N2CC(F)(F)C2)c(OCC2CC2)n1` [Example 32, 6-Cyclopropylmethoxy-5-(3,3-difluoro-azetidin-1-yl)-pyrazine-2-carboxylic acid ((S)-2-cyclopropyl-1-dimethylcarbamoyl-ethyl)-amide] the EC50 [1] was greater than 10 µM and the EC50 [2] was 0.0596 µM.
In the case of `CNC(=O)[C@H](CC(C)C)NC(=O)c1cnc(N2CC(F)(F)C2)c(OCC2CC2)n1` [Example 33, 6-Cyclopropylmethoxy-5-(3,3-difluoro-azetidin-1-yl)-pyrazine-2-carboxylic acid ((S)-3-methyl-1-methylcarbamoyl-butyl)-amide], the EC50 [1] is reported as greater than 10 µM and the EC50 [2] is reported as 0.0118 µM.
Compound `CC(C)C[C@H](NC(=O)c1cnc(N2CC(F)(F)C2)c(OCC2CC2)n1)C(=O)N(C)C` [Example 34, 6-Cyclopropylmethoxy-5-(3,3-difluoro-azetidin-1-yl)-pyrazine-2-carboxylic acid ((S)-1-dimethylcarbamoyl-3-methyl-butyl)-amide] has an EC50 [1] greater than 10 µM and an EC50 [2] of 0.0136 µM.
In the case of `COC(=O)[C@H](CC1CC1)NC(=O)c1cnc(C2CC2)c(OCC2CC2)n1` [Example 35, (S)-3-Cyclopropyl-2-[(5-cyclopropyl-6-cyclopropylmethoxy-pyrazine-2-carbonyl)-amino]-propionic acid methyl ester], the EC50 [1] is reported as greater than 10 µM and the EC50 [2] is reported as 0.0433 µM.
With `COC(=O)[C@H](CC1CC1)NC(=O)c1cnc(N2CC(F)(F)C2)c(OCC2CC2)n1` [Example 36, (S)-3-Cyclopropyl-2-{[6-cyclopropylmethoxy-5-(3,3-difluoro-azetidin-1-yl)-pyrazine-2-carbonyl]-amino}-propionic acid methyl ester] the EC50 [1] was greater than 10 µM and the EC50 [2] was 0.0096 µM.
`NC(=O)[C@H](Cc1ccccc1)NC(=O)c1cnc(C2CC2)c(OCC2CC2)n1` [Example 37, 5-Cyclopropyl-6-cyclopropylmethoxy-pyrazine-2-carboxylic acid ((S)-1-carbamoyl-2-phenyl-ethyl)-amide] was tested, and the EC50 [1] was 1.64 µM and the EC50 [2] was 0.108 µM.
For `NC(=O)[C@H](Cc1ccccc1)NC(=O)c1cnc(N2CC(F)(F)C2)c(OCC2CC2)n1` [Example 38, 6-Cyclopropylmethoxy-5-(3,3-difluoro-azetidin-1-yl)-pyrazine-2-carboxylic acid ((S)-1-carbamoyl-2-phenyl-ethyl)-amide], the EC50 [1] was greater than 10 µM and the EC50 [2] was 0.0444 µM.
`NC(=O)[C@H](CC1CC1)NC(=O)c1cnc(N2CC(F)(F)C2)c(OCC2CC2)n1` [Example 39, 6-Cyclopropylmethoxy-5-(3,3-difluoro-azetidin-1-yl)-pyrazine-2-carboxylic acid ((S)-1-carbamoyl-2-cyclopropyl-ethyl)-amide] was tested, and the EC50 [1] was greater than 10 µM and the EC50 [2] was 0.011 µM.
With `CC(C)(C)[C@H](NC(=O)c1cnc(C2CC2)c(OCC2CC2)n1)C(=O)O` [Example 44, (S)-2-[(5-Cyclopropyl-6-cyclopropylmethoxy-pyrazine-2-carbonyl)-amino]-3,3-dimethyl-butyric acid] the EC50 [1] was greater than 10 µM and the EC50 [2] was 0.442 µM.
In the case of `Cc1nc(C(C)(C)NC(=O)c2cnc(C3CC3)c(OCC3CC3)n2)no1` [Example 45, 5-Cyclopropyl-6-cyclopropylmethoxy-pyrazine-2-carboxylic acid [1-methyl-1-(5-methyl-[1,2,4]oxadiazol-3-yl)-ethyl]-amide], the EC50 [1] is reported as greater than 10 µM and the EC50 [2] is reported as 0.0514 µM.
`C[C@H](NC(=O)c1cnc(C2CC2)c(OCC2CC2)n1)c1ccccn1` [Example 46, 5-Cyclopropyl-6-cyclopropylmethoxy-pyrazine-2-carboxylic acid ((S)-1-pyridin-2-yl-ethyl)-amide] showed an EC50 [1] greater than 10 µM and an EC50 [2] of 0.291 µM.
For `O=C(N[C@H](c1ccccn1)C(F)(F)F)c1cnc(N2CC(F)(F)C2)c(OCC2CC2)n1` [Example 47, 6-Cyclopropylmethoxy-5-(3,3-difluoro-azetidin-1-yl)-pyrazine-2-carboxylic acid ((R)-2,2,2-trifluoro-1-pyridin-2-yl-ethyl)-amide], the EC50 [1] was greater than 10 µM and the EC50 [2] was 0.0729 µM.
`O=C(N[C@@H](c1ccccn1)C(F)(F)F)c1cnc(N2CC(F)(F)C2)c(OCC2CC2)n1` [Example 48, 6-Cyclopropylmethoxy-5-(3,3-difluoro-azetidin-1-yl)-pyrazine-2-carboxylic acid ((S)-2,2,2-trifluoro-1-pyridin-2-yl-ethyl)-amide] showed an EC50 [1] greater than 10 µM and an EC50 [2] of 0.0244 µM.
With `O=C(N[C@@H](c1ccccn1)C(F)(F)F)c1cnc(C2CC2)c(OCC2CC2)n1` [Example 49, 5-Cyclopropyl-6-cyclopropylmethoxy-pyrazine-2-carboxylic acid ((S)-2,2,2-trifluoro-1-pyridin-2-yl-ethyl)-amide] the EC50 [1] was greater than 10 µM and the EC50 [2] was 0.107 µM.
Compound `CCC(CC)(NC(=O)c1cnc(N2CC(F)(F)C2)c(OCC2CC2)n1)C(=O)NC` [Example 50, 6-Cyclopropylmethoxy-5-(3,3-difluoro-azetidin-1-yl)-pyrazine-2-carboxylic acid (1-ethyl-1-methylcarbamoyl-propyl)-amide] has an EC50 [1] greater than 10 µM and an EC50 [2] of 0.0074 µM.
Compound `CC(C)[C@](C)(CO)NC(=O)c1cnc(C2CC2)c(OCC2CC2)n1` [Example 51, 5-Cyclopropyl-6-cyclopropylmethoxy-pyrazine-2-carboxylic acid ((R)-1-hydroxymethyl-1,2-dimethyl-propyl)-amide] has an EC50 [1] greater than 10 µM and an EC50 [2] of 0.137 µM.
Compound `CC(C)[C@@](C)(CO)NC(=O)c1cnc(C2CC2)c(OCC2CC2)n1` [Example 52, 5-Cyclopropyl-6-cyclopropylmethoxy-pyrazine-2-carboxylic acid ((S)-1-hydroxymethyl-1,2-dimethyl-propyl)-amide] has an EC50 [1] greater than 10 µM and an EC50 [2] of 0.0369 µM.
`CCC(CC)(NC(=O)c1cnc(C2CC2)c(OCC2CC2)n1)C(=O)NC` [Example 53, 5-Cyclopropyl-6-cyclopropylmethoxy-pyrazine-2-carboxylic acid (1-ethyl-1-methylcarbamoyl-propyl)-amide] showed an EC50 [1] greater than 10 µM and an EC50 [2] of 0.0151 µM.
For `Cc1csc(C(C)(C)NC(=O)c2cnc(C3CC3)c(OCC3CC3)n2)n1` [Example 54, 5-Cyclopropyl-6-cyclopropylmethoxy-pyrazine-2-carboxylic acid [1-methyl-1-(4-methyl-thiazol-2-yl)-ethyl]-amide], the EC50 [1] was greater than 10 µM and the EC50 [2] was 0.188 µM.
In the case of `Cc1csc(C(C)(C)NC(=O)c2cnc(N3CC(F)(F)C3)c(OCC3CC3)n2)n1` [Example 55, 6-Cyclopropylmethoxy-5-(3,3-difluoro-azetidin-1-yl)-pyrazine-2-carboxylic acid [1-methyl-1-(4-methyl-thiazol-2-yl)-ethyl]-amide], the EC50 [1] is reported as greater than 10 µM and the EC50 [2] is reported as 0.022 µM.
In the case of `Cc1nc([C@@H](C)NC(=O)c2cnc(N3CC(F)(F)C3)c(OCC3CC3)n2)no1` [Example 56, 6-Cyclopropylmethoxy-5-(3,3-difluoro-azetidin-1-yl)-pyrazine-2-carboxylic acid [(R)-1-(5-methyl-[1,2,4]oxadiazol-3-yl)-ethyl]amide], the EC50 [1] is reported as greater than 10 µM and the EC50 [2] is reported as 0.0725 µM.
With `CC(C)(NC(=O)c1cnc(C2CC2)c(OCC2CC2)n1)c1noc(N)n1` [Example 57, 5-Cyclopropyl-6-cyclopropylmethoxy-pyrazine-2-carboxylic acid [1-(5-amino-[1,2,4]oxadiazol-3-yl)-1-methyl-ethyl]-amide] the EC50 [1] was greater than 10 µM and the EC50 [2] was 0.221 µM.
In the case of `CC(C)(NC(=O)c1cnc(N2CC(F)(F)C2)c(OCC2CC2)n1)c1noc(N)n1` [Example 58, 6-Cyclopropylmethoxy-5-(3,3-difluoro-azetidin-1-yl)-pyrazine-2-carboxylic acid [1-(5-amino-[1,2,4]oxadiazol-3-yl)-1-methyl-ethyl]-amide], the EC50 [1] is reported as greater than 10 µM and the EC50 [2] is reported as 0.178 µM.
